Source: patent EP4570793A1, “5-HT2A RECEPTOR INVERSE AGONIST, AND PREPARATION METHOD THEREFOR AND USE THEREOF” (Luye Innomind Pharma Shijiazhuang Co., Ltd., priority 2022, dated 2024)
Where two headings read alike, the source gives them in different places.

Key:
[1] = target: hERG potassium channels (Homo sapiens, UniProt Q12809); assay: cell-based
Procedure: • Species & strain: CHO-hERG cell line (Chinese hamster ovary cells stably expressing hERG channels) • Culture medium: 90% F12, 10% fetal bovine serum, 100 µg/mL G418, and 100 µg/mL Hygromycin B • Culture conditions: incubator at 37 °C with 5% CO2 • Cryopreservation condition: liquid nitrogen
On the day of the test, the compound was diluted with DMSO to an intermediate concentration. Then, 10 µL of the intermediate-concentration compound was transferred to 4990 µL of extracellular fluid, achieving a 500-fold dilution to obtain the final concentration to be tested.
hERG potassium channel currents were recorded at room temperature by the whole-cell patch clamp technique in the CHO (Chinese hamster ovary) cells stably expressing hERG potassium channels. Glass microelectrodes were formed by pulling a glass electrode blank (BF150-86-10, Sutter) using a puller. The tip resistance after perfusion of electrode internal solution was about 2-5 MΩ. The glass microelectrodes could be connected to a patch clamp amplifier after being inserted into amplifier probes. The clamping voltage and data recording were controlled and recorded by a computer with a pClamp 10 software, with a sampling frequency of 10 kHz and a filtering frequency of 2 kHz. After achieving the whole-cell recording, the cells were clamped at -80 mV. The step voltage evoking hERG potassium current (IhERG) was changed from -80 mV to +20 mV by applying a 2 s depolarization voltage, followed by repolarization to -50 mV for 1 s, and then returned to -80 mV. This voltage stimulation was applied every 10 s, and after it was determined that the hERG potassium currents were stable (1 min), the administration process was started. Each test concentration of the compound was applied for at least 1 min, and at least 2 cells (n ≥ 2) were tested for each concentration.

[2] = In-vitro liver microsomal stability (dog); type: in vitro ADME; conditions: Dog liver microsomes, 1 µM, 0.5 mg/mL, NADPH
Procedure: (§1) Test Example 3. Evaluation of In-Vitro Liver Microsomal Stability
(§2) • 1) Preparation of test sample working solution: A test sample was diluted to 100 µM with methanol. • 2) Preparation of liver microsome working solution: Liver microsomes were diluted to 0.56 mg/mL with 100 mM phosphate-buffered saline. • 3) Preparation of working solution of reduced nicotinamide adenine dinucleotide phosphate (NADPH): A proper amount of NADPH was weighed out and diluted to 20 mM with phosphate-buffered saline, and then an equal volume of a 60 mM MgCl2 solution was added. • 4) Preparation of stop solution: Tolbutamide was diluted to 20 ng/mL with acetonitrile to serve as a stop solution containing an internal standard.
• 1) Anti-adsorption EP tubes for incubation were prepared and labeled with species, test samples, control samples (testosterone and dextromethorphan), time points (0 min, 5 min, 10 min, 20 min, 30 min, 60 min, Blank60, and NCF60), etc. • 2) 2 µL of test or control sample working solution and 178 µL of liver microsome working solution were added to each tube. For the Blank tube, 2 µL of acetonitrile was added instead of the test sample. The tubes were preincubated in a water bath at 37 °C for about 10 min, with 3 replicates set up for each sample. • 3) After the pre-incubation was completed, 20 µL of NADPH working solution was added to each tube except for the 0 min and NCF60 tubes to start the reaction. For the NCF60 tube, 20 µL of phosphate-buffered saline (containing 30 mM MgCl2) was added. In the incubation system, the final concentration of the test or control sample was 1 µM, the final concentration of liver microsomes was 0.5 mg/mL, the final concentration of NADPH was 1 mM, and the final concentration of MgCl2 was 3 mM. • 4) For the 0 min sample, 600 µL of stop solution was added, followed by the addition of the NADPH working solution. For the other samples, after each of them was incubated for the corresponding time, 600 µL of stop solution was added to stop the reaction. • 5) After the reaction was stopped, each sample was vortexed for 30 s and then centrifuged at 13500 rpm for 10 min. Then, 100 µL of the supernatant was transferred to an EP tube, and 100 µL of Milli-Q water was added. The mixture was well mixed by vortexing and analyzed by LC-MS/MS. • 6) Testosterone and dextromethorphan were used as positive control samples under the same conditions to assess the stability and reliability of the system. […]

[3] = In-vitro liver microsomal stability (human); type: in vitro ADME; conditions: Human liver microsomes, 1 µM, 0.5 mg/mL, NADPH
Procedure: as §1, §2
(§3) • 1) Anti-adsorption EP tubes for incubation were prepared and labeled with species, test samples, control samples (testosterone and dextromethorphan), time points (0 min, 5 min, 10 min, 20 min, 30 min, 60 min, Blank60, and NCF60), etc. • 2) 2 µL of test or control sample working solution and 178 µL of liver microsome working solution were added to each tube. For the Blank tube, 2 µL of acetonitrile was added instead of the test sample. The tubes were preincubated in a water bath at 37 °C for about 10 min, with 3 replicates set up for each sample. • 3) After the pre-incubation was completed, 20 µL of NADPH working solution was added to each tube except for the 0 min and NCF60 tubes to start the reaction. For the NCF60 tube, 20 µL of phosphate-buffered saline (containing 30 mM MgCl2) was added. In the incubation system, the final concentration of the test or control sample was 1 µM, the final concentration of liver microsomes was 0.5 mg/mL, the final concentration of NADPH was 1 mM, and the final concentration of MgCl2 was 3 mM. • 4) For the 0 min sample, 600 µL of stop solution was added, followed by the addition of the NADPH working solution. For the other samples, after each of them was incubated for the corresponding time, 600 µL of stop solution was added to stop the reaction. • 5) After the reaction was stopped, each sample was vortexed for 30 s and then centrifuged at 13500 rpm for 10 min. Then, 100 µL of the supernatant was transferred to an EP tube, and 100 µL of Milli-Q water was added. The mixture was well mixed by vortexing and analyzed by LC-MS/MS. • 6) Testosterone and dextromethorphan were used as positive control samples under the same conditions to assess the stability and reliability of the system.
(§4) Table 2: Test data for the compounds of the present disclosure in human and rat liver microsomes

[4] = target: 5-HT2A receptor (Homo sapiens, UniProt P28223); assay: Assay for 5-HT2A receptor inverse agonist activity (NIH3T3-5-HT2A R cells, Bright-Glo luciferase, cell inhibition rate)
Chain of 5-HT2A receptor (P28223 whole entry): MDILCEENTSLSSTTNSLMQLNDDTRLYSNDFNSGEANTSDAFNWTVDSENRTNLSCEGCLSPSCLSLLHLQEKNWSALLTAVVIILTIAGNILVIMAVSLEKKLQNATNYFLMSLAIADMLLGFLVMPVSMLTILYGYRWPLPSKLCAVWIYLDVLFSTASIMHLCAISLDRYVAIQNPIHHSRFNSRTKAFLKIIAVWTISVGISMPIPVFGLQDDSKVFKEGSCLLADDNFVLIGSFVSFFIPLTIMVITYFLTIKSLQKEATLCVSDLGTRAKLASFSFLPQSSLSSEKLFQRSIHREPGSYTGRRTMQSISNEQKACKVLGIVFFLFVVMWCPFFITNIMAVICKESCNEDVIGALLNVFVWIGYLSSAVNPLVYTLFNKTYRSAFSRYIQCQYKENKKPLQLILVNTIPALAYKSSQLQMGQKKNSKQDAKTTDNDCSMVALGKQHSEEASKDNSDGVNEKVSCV
Procedure: Assay for 5-HT2A Receptor Inverse Agonist Activity
• Cell line: adherent cells NIH3T3-5-HT2A R • Cell culture medium: DMEM + 10% FBS (purchased from GBICO) • Cell culture plate: 96-well white/clear bottom plate (purchased from Perkin Elmer) • Detection kit: Bright-Glo™ Luciferase (purchased from Promega) • Detection instrument: BioTek multimode microplate reader
NIH3T3-5HT2A R cells in the logarithmic growth phase were seeded into a 96-well white/clear bottom plate at a density of 1000 cells/well and then cultured overnight in an incubator at 37 °C with 5% CO2. […] Duplicate wells were set up for each concentration. […] After the drug addition, the cells were cultured in the incubator at 37 °C with 5% CO2 for another 120 h. On the sixth day, a Bright-Glo™ Luciferase reagent was added to the cells in a volume equal to that of the cell culture medium. The plate was then incubated in the dark at room temperature for 20 min, with the plate shaker vibrating once every 5 min. The luminescence intensity was detected using a microplate reader, and the cell inhibition rate was calculated. Data were processed using GraphPad Prism 7.0 to obtain the cell inhibition rate curve and calculate IC50.

[5] = In-vitro liver microsomal stability (rat); type: in vitro ADME; conditions: Rat liver microsomes, 1 µM, 0.5 mg/mL, NADPH
Procedure: as §1, §2, §3, §4

[6] = 5-HT2A inverse agonist activity IC50 (nM), NIH3T3-5HT2A R cells, 120 h, luminescence

Chain of hERG potassium channels (Q12809 whole entry): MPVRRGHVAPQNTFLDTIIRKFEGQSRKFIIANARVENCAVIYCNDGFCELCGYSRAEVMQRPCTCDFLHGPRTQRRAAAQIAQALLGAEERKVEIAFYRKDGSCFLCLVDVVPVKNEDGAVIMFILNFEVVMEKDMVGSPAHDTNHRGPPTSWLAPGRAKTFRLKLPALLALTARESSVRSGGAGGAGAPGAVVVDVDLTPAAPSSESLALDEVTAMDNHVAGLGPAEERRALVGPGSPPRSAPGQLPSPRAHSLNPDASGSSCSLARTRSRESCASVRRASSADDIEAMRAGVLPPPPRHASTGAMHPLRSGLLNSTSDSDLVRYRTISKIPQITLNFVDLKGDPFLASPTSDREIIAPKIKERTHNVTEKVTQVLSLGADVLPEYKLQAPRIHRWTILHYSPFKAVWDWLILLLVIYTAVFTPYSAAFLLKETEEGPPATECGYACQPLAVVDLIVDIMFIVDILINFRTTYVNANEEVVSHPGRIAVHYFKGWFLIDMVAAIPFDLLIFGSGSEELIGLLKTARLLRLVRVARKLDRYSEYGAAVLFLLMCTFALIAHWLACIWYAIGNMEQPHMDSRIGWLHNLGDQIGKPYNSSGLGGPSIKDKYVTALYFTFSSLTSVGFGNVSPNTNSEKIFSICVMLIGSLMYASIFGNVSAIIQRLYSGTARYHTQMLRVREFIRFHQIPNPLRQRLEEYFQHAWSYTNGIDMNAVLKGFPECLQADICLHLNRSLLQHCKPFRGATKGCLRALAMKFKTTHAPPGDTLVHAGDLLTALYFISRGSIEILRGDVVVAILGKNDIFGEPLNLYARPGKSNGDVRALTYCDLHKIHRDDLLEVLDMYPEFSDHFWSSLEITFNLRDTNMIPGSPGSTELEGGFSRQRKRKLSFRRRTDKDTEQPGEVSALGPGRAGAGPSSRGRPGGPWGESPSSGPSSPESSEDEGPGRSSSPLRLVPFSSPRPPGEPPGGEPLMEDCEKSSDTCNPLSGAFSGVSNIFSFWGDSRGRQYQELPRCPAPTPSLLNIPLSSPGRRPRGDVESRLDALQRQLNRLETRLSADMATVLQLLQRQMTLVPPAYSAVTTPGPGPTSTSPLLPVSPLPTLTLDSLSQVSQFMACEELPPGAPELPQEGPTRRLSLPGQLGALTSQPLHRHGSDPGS

Row | Remaining amount% at 60 min [5] [%] | IC50 [4] [nM] | SMILES | IC50 [1] [nM] | Remaining amount% at 60 min [2] [%] | Remaining amount% at 60 min [3] [%] | IC50 [4, 6] [nM]
1 | – | – | CN1CCC(N(Cc2ccc(F)cn2)C(=O)NCc2ccc3ncccc3c2)CC1 [Compound 10] | 3860 | 58.6 | 71.9 | 29.6
2 | 69.21 | 163 | CN1CCC(N(Cc2ccc(F)cn2)C(=O)NCc2ccc3c(ccn3C)c2)CC1 [Compound 12] | 2220 | – | 77.06 | –
3 | 63.98 | – | CN1CCC(N(Cc2ccc(F)cn2)C(=O)NCc2cnc(OCC(F)(F)F)c(Cl)c2)CC1 [Compound 27] | > 30000 | – | 50.93 | –
4 | – | – | CN1CCC(N(Cc2ccc(F)cn2)C(=O)NCc2ccc(OCC(F)(F)F)cn2)CC1 [Compound 1] | 4930 | 88.7 | 85.7 | 152
5 | – | – | CN1CCC(N(Cc2ccc(F)cn2)C(=O)NCc2ccc3[nH]ccc3c2)CC1 [Compound 9] | 3120 | 45.3 | 93.1 | 28.2
6 | 54.78 | – | CN1CCC(N(Cc2ccc(F)cn2)C(=O)NCc2cnc(OCC(F)(F)F)c(Br)c2)CC1 [Compound 28] | > 30000 | – | 38.94 | –

Row | SMILES | Remaining amount% at 60 min [5] [%] | IC50 [4] [nM] | IC50 [1] [nM] | Remaining amount% at 60 min [2] [%] | Remaining amount% at 60 min [3] [%] | IC50 [4, 6] [nM]
7 | CN1CCC(N(Cc2ccc(F)cn2)C(=O)NCc2ccc(OCC(F)(F)F)nc2)C2(CC2)C1 (single isomer, unassigned) [Compound 50A] | 58.8 | – | 2200 | – | 89.7 | 2.6
